According to article PMC3961306, “Comparison of the Cancer Gene Targeting and Biochemical Selectivities of All Targeted Kinase Inhibitors Approved for Clinical Use” (PLoS ONE, 2014):

How the values were obtained:
Assay in all cases: Kinase profiling in a biochemical assay panel (mobility shift assays and ELISA), %-inhibition at 1 μM; selectivity entropy
[1] = target: panel of more than 300 wild-type and mutant kinases (313 kinase panel) (Homo sapiens, UniProt P00533, T790M); settings: kinase EGFR(T790M); compound at 1 μM
[2] = target: panel of more than 300 wild-type and mutant kinases (313 kinase panel) (Homo sapiens, UniProt P09619); settings: kinase PDGFRβ; 1 μM
[3] = target: panel of more than 300 wild-type and mutant kinases (313 kinase panel) (Homo sapiens, UniProt Q9UM73, R1275Q)
[4] = target: panel of more than 300 wild-type and mutant kinases (313 kinase panel) (Homo sapiens, UniProt P00519)
[5] = target: panel of more than 300 wild-type and mutant kinases (313 kinase panel) (Homo sapiens, UniProt P00533)
[6] = target: panel of more than 300 wild-type and mutant kinases (313 kinase panel) (Homo sapiens, UniProt P00533, L858R)
[7] = target: panel of more than 300 wild-type and mutant kinases (313 kinase panel) (Homo sapiens, UniProt P00533, L858R/T790M)
[8] = target: panel of more than 300 wild-type and mutant kinases (313 kinase panel) (Homo sapiens, UniProt P00533, L861Q); settings: kinase EGFR(L861Q); compound at 1 μM
[9] = target: panel of more than 300 wild-type and mutant kinases (313 kinase panel) (Homo sapiens, UniProt P07947, T348I)
[10] = target: panel of more than 300 wild-type and mutant kinases (313 kinase panel) (Homo sapiens, UniProt P11362, V561M); settings: kinase FGFR1(V561M); compound at 1 μM
[11] = target: panel of more than 300 wild-type and mutant kinases (313 kinase panel) (Homo sapiens, UniProt P15056)
[12] = target: panel of more than 300 wild-type and mutant kinases (313 kinase panel) (Homo sapiens, UniProt P15056, V600E)
[13] = target: panel of more than 300 wild-type and mutant kinases (313 kinase panel) (Homo sapiens, UniProt P35968)
[14] = target: panel of more than 300 wild-type and mutant kinases (313 kinase panel) (Homo sapiens, UniProt P00519, T315I)
[15] = kinase ALK(R1275Q), 1 μM compound
[16] = kinase EGFR(L858R), compound at 1 μM
[17] = kinase EGFR(T790M/L858R), compound at 1 μM
[18] = kinase YES(T348I), compound at 1 μM
[19] = kinase BRAF(V600E), 1 μM compound
[20] = kinase ABL(T315I), 1 μM compound

Structure (SMILES) | %-inhibition of EGFR(T790M) [1] | %-inhibition of PDGFRβ [2] | %-inhibition, ALK(R1275Q) [3, 15] | %-inhibition of EGFR ([5]; kinase EGFR, compound at 1 μM) | %-inhibition of EGFR(L858R) [6, 16] | %-inhibition of EGFR(T790M/L858R) [7, 17] | %-inhibition of EGFR(L861Q) [8] | %-inhibition of YES(T348I) [9, 18] | %-inhibition of FGFR1(V561M) [10] | %-inhibition, BRAF ([11]; kinase BRAF, 1 μM compound) | %-inhibition, BRAF(V600E) [12, 19] | %-inhibition of KDR ([13]; kinase KDR, compound at 1 μM) | also measured
COc1cc(Nc2c(C#N)cnc3cc(OCCCN4CCN(C)CC4)c(OC)cc23)c(Cl)cc1Cl [bosutinib] | 87% | 95% | 61% |  |  |  |  |  |  |  |  |  | 
COc1cc2nccc(Oc3ccc(NC(=O)C4(C(=O)Nc5ccc(F)cc5)CC4)cc3)c2cc1OC [cabozantinib] | 32% | 84% | 79% | 54% | 30% | 29% | 46% | 67% | -2.45% | 25% | 37% |  | %-inhibition, ABL ([4]; kinase ABL, 1 μM compound): 56%
C[C@@H](Oc1cc(-c2cnn(C3CCNCC3)c2)cnc1N)c1c(Cl)ccc(F)c1Cl [crizotinib] |  | 18% |  |  |  |  |  | 93% | 26% | 12% | 10% |  | 
CC(C)(C)c1nc(-c2cccc(NS(=O)(=O)c3c(F)cccc3F)c2F)c(-c2ccnc(N)n2)s1 [dabrafenib] |  |  |  |  |  |  |  |  | -0.282% |  |  |  | 
C#Cc1cccc(Nc2ncnc3cc(OCCOC)c(OCCOC)cc23)c1 [erlotinib] |  |  |  |  |  |  |  |  |  |  |  |  | %-inhibition, ABL ([4]; 1 µM): 64%; %-inhibition, BRAF ([11]; 1 µM): 14%; %-inhibition, BRAF(V600E) ([12]; 1 µM): 8%; %-inhibition of KDR ([13]; 1 µM): 74%
CO[C@H]1C[C@@H]2CC[C@@H](C)[C@@](O)(O2)C(=O)C(=O)N2CCCC[C@H]2C(=O)O[C@H]([C@H](C)C[C@@H]2CC[C@@H](OCCO)[C@H](OC)C2)CC(=O)[C@H](C)/C=C(\C)[C@@H](O)[C@@H](OC)C(=O)[C@H](C)C[C@H](C)/C=C/C=C/C=C/1C [everolimus] |  | -3.52% | -4.29% |  |  | -5% |  | -0.414% | -12% | -6.54% | 2% | -6.38% | 
O=S(=O)(c1cccc2cnccc12)N1CCCNCC1 [fasudil] |  | 12% | -1.83% |  |  |  |  | 6% | 2.35% | -3.28% | 3.36% | 1.78% | %-inhibition, ABL ([4]; kinase ABL, 1 μM compound): -8%; %-inhibition, ABL(T315I) [14, 20]: 1.7%
CS(=O)(=O)CCNCc1ccc(-c2ccc3ncnc(Nc4ccc(OCc5cccc(F)c5)c(Cl)c4)c3c2)o1 [lapatinib] |  | 2.84% |  |  |  |  |  |  |  |  |  |  | %-inhibition, ABL ([4]; kinase ABL, 1 μM compound): 17%; %-inhibition, ABL(T315I) [14, 20]: 9%
Cc1cn(-c2cc(NC(=O)c3ccc(C)c(Nc4nccc(-c5cccnc5)n4)c3)cc(C(F)(F)F)c2)cn1 [nilotinib] | 7.54% |  |  | 17% | 30% |  | 11% |  |  |  |  | 22% | 
Cc1ccc(Nc2nccc(N(C)c3ccc4c(C)n(C)nc4c3)n2)cc1S(N)(=O)=O [pazopanib] | 5% | 96% |  | 17% | 36% | 43% | 13% |  |  |  |  |  | 
Cc1ccc(C(=O)Nc2ccc(CN3CCN(C)CC3)c(C(F)(F)F)c2)cc1C#Cc1cnc2cccnn12 [ponatinib] |  | 102% | 45% |  |  |  |  | 96% | 98% | 89% | 84% |  | %-inhibition of EGFR ([5]; 1 µM): 97%; %-inhibition of EGFR(L858R) ([6]; 1 µM): 95%; %-inhibition of EGFR(T790M/L858R) ([7]; 1 µM): 49%
CNC(=O)c1cc(Oc2ccc(NC(=O)Nc3ccc(Cl)c(C(F)(F)F)c3)c(F)c2)ccn1 [regorafenib] | -7.38% |  | 5% | 12% | 2.24% | 1.68% | 6% | 40% |  |  |  | 103% | %-inhibition, ABL ([4]; kinase ABL, 1 μM compound): 68%; %-inhibition, ABL(T315I) [14, 20]: 66%
N#CC[C@H](C1CCCC1)n1cc(-c2ncnc3[nH]ccc23)cn1 [ruxolitinib] | -8% |  |  | -0.278% | -4% | -0.336% | -3.22% |  | 50% | 14% | 6% | 6.52% | %-inhibition, ABL ([4]; 1 µM): 5%; %-inhibition, ABL(T315I) ([14]; 1 µM): 4%; %-inhibition of YES(T348I) ([9]; 1 µM): 5%; %-inhibition, ALK(R1275Q) ([3]; 1 µM): 49%
CO[C@H]1C[C@@H]2CC[C@@H](C)[C@@](O)(O2)C(=O)C(=O)N2CCCC[C@H]2C(=O)O[C@H]([C@H](C)C[C@@H]2CC[C@@H](OC(=O)C(C)(CO)CO)[C@H](OC)C2)CC(=O)[C@H](C)/C=C(\C)[C@@H](O)[C@@H](OC)C(=O)[C@H](C)C[C@H](C)/C=C/C=C/C=C/1C [temsirolimus] |  | -2.27% | -1.39% |  |  | -2.75% |  | -0.177% | -9% | -3.36% | -0.864% | -7% | 
CC(=O)Nc1cccc(-n2c(=O)n(C3CC3)c(=O)c3c(Nc4ccc(I)cc4F)n(C)c(=O)c(C)c32)c1 [trametinib] |  | 3.44% | -1.83% |  |  | -6.51% |  | -2.82% | -3.3% | 78% | 37% | -0.549% | 
COc1cc2c(Nc3ccc(Br)cc3F)ncnc2cc1OCC1CCN(C)CC1 [vandetanib] |  |  |  |  |  |  |  | 100% |  | 24% | 18% |  | 
CCCS(=O)(=O)Nc1ccc(F)c(C(=O)c2c[nH]c3ncc(-c4ccc(Cl)cc4)cc23)c1F [vemurafenib] | -5.57% | 33% | 3.57% | 7% | 0.505% | 5% | 5% | 4% | 5.37% | 99% |  | 13% | %-inhibition, ABL ([4]; kinase ABL, 1 μM compound): 15%; %-inhibition, ABL(T315I) [14, 20]: 7%
